Patent US20230255943A1, “MMP-9 AND MMP-12 INHIBITION FOR TREATING SPINAL CORD INJURY OR RELATED INJURY TO NEUROLOGICAL TISSUE” (The University of Birmingham, priority 2020, published 2023)

Assays:
[1] = system: gelatinase enzyme activity; experiment: In situ zymography of DC-injured spinal cord sections; assay type: in vivo, mouse; details: oral and intrathecally-administered
Method: Animals were killed by CO2 overdose intracardially perfused with warm PBS and unfixed tissues were harvested. […] In situ zymography was performed as described previously (Z. Ahmed, R. G. Dent, W. E. Leadbeater, C. Smith, M. Berry, A. Logan, Matrix metalloproteases: degradation of the inhibitory environment of the transected optic nerve and the scar by regenerating axons. Mol Cell Neurosci 28, 64-78 (2005)).
Briefly, 15 μm-thick unfixed frozen longitudinal sections of the spinal cord were cut on a cryostat and incubated at 25° C., for 24 h in 50 mM Tris, pH 7.4, 150 mM NaCl, 5 mM CaCl2, 0.2 mM sodium azide and 40 ug/ml fluorescein conjugated DQ™ gelatin (Molecular Probes). Upon proteolysis, the highly fluoresceinated gelatin residues became separated and fluorescence resulted. Control sections were incubated either without DQ™ gelatin or incubated with 50 μM 1,10-phenanthroline (Sigma, Poole, UK) to block MMP activation. […] After final washes in PBS, sections were mounted in Vectashield with DAPI (Vector Laboratories, Loughborough, UK) and viewed with a Zeiss Axioplan 2 fluorescence microscope, equipped with an AxioCam HRc and running Axiovision software (Zeiss, Hertfordshire, UK).

[2] = system: mice with DC crush injury; experiment: Tape removal test (sensory function) after DC injury in mice; assay type: in vivo, mouse
Method: (§1) Functional testing after DC lesion and treatment was carried out as described previously (N. D. Fagoe, C. L. Attwell, R. Eggers, L. Tuinenbreijer, D. Kouwenhoven, J. Verhaagen, M. R. Mason, Evaluation of Five Tests for Sensitivity to Functional Deficits following Cervical or Thoracic Dorsal Column Transection in the Rat. PLoS One 11, e0150141 (2016)).
Briefly, animals (n=18/group) were first trained to master traversing a horizontal ladder for 1 w before functional testing. Baseline parameters were established by performing tests at 2-3d before injury. Animals were then tested at 2d, 1 w, 2 w, 3 w, 4 w, 5 w and 6 w after DC injury+treatment. Experiments were performed by an observer masked to the treatment conditions in the same order and time of day with each test performed for 3 individual trials.
(§2) Tape removal test (sensory function): The tape removal test determines touch perception from the left hind paw. After holding animals with both hind-paws extended, the time it took for the animal to detect and remove a piece of tape of 15×15 mm (Kip Hochkrepp, Bocholt, Germany) affixed to the palm of the left hind-paw was recorded and used to calculate the mean sensing time.

[3] = system: rats with DC crush injury; experiment: Spinal cord water content after DC injury in rats; assay type: in vivo; details: rat DC injury, oral, 3 days
Method: DC crush injury was administered bilaterally at the T8 vertebral level as described previously (S. Surey, M. Berry, A. Logan, R. Bicknell, Z. Ahmed, Differential cavitation, angiogenesis and wound-healing responses in injured mouse and rat spinal cords. Neuroscience 275, 62-80 (2014); M. L. Read, S. Mir, R. Spice, R. J. Seabright, E. L. Suggate, Z. Ahmed, M. Berry, A. Logan, Profiling RNA interference (RNAi)-mediated toxicity in neural cultures for effective short interfering RNA design. J Gene Med 11, 523-534 (2009)). […]
The efficacy of oral AZD3342 in the DC injury model in adult Sprague-Dawley rat was also assessed. […]
The lesion site+3 mm either side for mice and the lesion site+5 mm either side for the rat DC model were dissected out and the water content of the spinal cord (as a measure of oedema) was determined at 3 days after DC and CC SCI, as described previously (S. Li, C. H. Tator, Effects of MK801 on evoked potentials, spinal cord blood flow and cord edema in acute spinal cord injury in rats. Spinal Cord 37, 820-832 (1999)). […] The percent water content was calculated as: water content (%)=[(wet weight-dry weight)/wet weight]×100%.

[4] = system: rats with DC crush injury; experiment: Tape sensing and removal (sensory function) in rat DC model; assay type: in vivo; details: over 6 weeks
Method: The efficacy of oral AZD3342 in the DC injury model in adult Sprague-Dawley rat was also assessed. Animals were divided into 6 groups: (1), Sham (control); (2), DC crush injury+Vehicle; (3), DC crush injury+15 mg/kg AZD3342; (4), DC crush injury+75 mg/kg […]; (5), DC crush injury+375 mg/kg AZD3342; and (6), DC crush injury+Melatonin. Animals were dosed twice daily with oral AZD3342 or vehicle with the experimenters masked to the treatment conditions. These experiments were performed with n=6 rats/group and repeated on 2-3 independent occasions (total n=12-18 rats/group/test).
as §1, with “(2016)). […]” for “(2016)).”
as §2

Structure (SMILES) | DC injury-induced gelatinase activity adjacent to the lesion site [1] | sensory function, 24-h delayed treatment ([2]; optimal doses, 24 h delay vs immediate) | improvement in sensory function ([2]; oral) [%] | mean tape sensing and removal time ([2]; oral, by 3 weeks) | SCI-induced edema (spinal cord water content) [3] | sensory function (tape sensing and removal) [4]
C[C@]1(CS(=O)(=O)N2CC=C(C#Cc3cnc(C4CC4)nc3)CC2)NC(=O)NC1=O [AZD1236] | completely suppressed | equally as effective as immediate delivery | 85 | indistinguishable from sham-treated groups |  | 
C[C@]1(CS(=O)(=O)N2CCC(Oc3ccc(Cl)cn3)CC2)NC(=O)NC1=O [AZD3342, (5S)-5-[4-(5-chloro-pyridin-2-yloxy)-piperidine-1-sulfonylmethyl]-5-methylimidazolidine-2,4-dione] |  |  |  |  | suppressed | significantly improved
